Experimental data as given in patent US11925629B2, “Heterocyclic inhibitors of ERK1 and ERK2 and their use in the treatment of cancer” (Asana Biosciences, LLC, priority 2015, dated 2024).

Legend:
Assay type in all cases: cell-based, human
[1] = test system: HCT116 (colorectal carcinoma, K Ras G13D) cells; experiment: Cell proliferation (Alamar Blue) assay, HCT116; details: Homo sapiens, HCT-116, HCT116 cells
Procedure, shortened: (§1)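 Fluorescence read-out (ex 540 nm, em 590 nm) after 1-3 h with 1× Alamar Blue, following 72 h compound exposure at 37° C./5% CO2. Compounds tested at typically 0.0005 to 10 uM, 3-fold steps; IC50 by sigmoidal dose-response (variable slope).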

[2] = test system: HT-29 (colorectal carcinoma, B-RafV600E) cells; experiment: Cell proliferation (Alamar Blue) assay, HT-29; details: Homo sapiens, HT-29, HT29 cells
Procedure, shortened: as §1

[3] = test system: phosphorylation of RSK1(S380) (the downstream target of ERK1/2); experiment: Phospho-RSK1(S380) ELISA assay in HT-29 cells; details: Homo sapiens, HT-29, HT29 cells, phospho-RSK1(S380); read-out: Mechanistic Cell Assay RSK1 Phos HT29 IC50
Procedure, shortened: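 HT-29 colorectal carcinoma cells (B-RafV600E), plated overnight at 37° C./5% CO2, were treated with compound dilutions for 2 h. Lysates were analysed by phospho-RSK1(Ser380) sandwich ELISA with absorbance at 450 nm. IC50 came from a sigmoidal variable-slope dose-response fit.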

Row | SMILES | IC50 [1] [nM] | IC50 [2] [nM] | IC50 [3] [nM]
1 | Cc1cnc(Nc2ccc3c(c2)OCO3)nc1-n1ccc(C(=O)N[C@H](CO)Cc2ccccc2)c1 [Example 59, (S)-1-(2-(benzo[d][1,3]dioxol-5-ylamino)-5-methyl-pyrimidin-4-yl)-N-(1-hydroxy-3-phenyl-propan-2-yl)-1H-pyrrole-3-carboxamide] | 250 to 500 | 250 to 500 | 250 to 500
2 | Cc1cnc(Nc2ccc3c(c2)OCO3)nc1-n1ccc(C(=O)N[C@H](CO)c2ccccc2)c1 [Example 60, (S)-1-(2-(benzo[d][1,3]dioxol-5-ylamino)-5-methyl-pyrimidin-4-yl)-N-(2-hydroxy-1-phenylethyl)-1H-pyrrole-3-carboxamide] | 100 to 250 | ≤ 100 | ≤ 100
3 | Cc1cnc(Nc2ccc3c(c2)OC(F)(F)O3)nc1-n1ccc(C(=O)NC(CO)c2cccc(Cl)c2)c1 (stereo not drawn) [Example 62, N-(1-(3-chloro-phenyl)-2-hydroxy-ethyl)-1-(2-((2,2-difluoro-benzo[d][1,3]dioxol-5-yl)amino)-5-methyl-pyrimidin-4-yl)-1H-pyrrole-3-carboxamide] | 500 to 2500 | 500 to 2500 | 500 to 2500
4 | Cc1cnc(Nc2ccc3c(c2)OC(F)(F)O3)nc1-n1ccc(C(=O)NC(CO)c2ccccc2)c1 (stereo not drawn) [Example 63, 1-(2-((2,2-difluoro-benzo[d][1,3]dioxol-5-yl)amino)-5-methyl-pyrimidin-4-yl)-N-(2-hydroxy-1-phenylethyl)-1H-pyrrole-3-carboxamide] | 500 to 2500 | 500 to 2500 | 250 to 500
5 | COC[C@@H](NC(=O)c1ccn(-c2nc(Nc3ccc4c(c3)OCO4)ncc2C)c1)c1ccccc1 [Example 64, (S)-1-(2-(benzo[d][1,3]dioxol-5-ylamino)-5-methyl-pyrimidin-4-yl)-N-(2-methoxy-1-phenylethyl)-1H-pyrrole-3-carboxamide] | 500 to 2500 | 250 to 500 | 500 to 2500
6 | Cc1cnc(Nc2ccc3occc3c2)nc1-n1ccc(C(=O)NC(CO)c2ccccc2)c1 (stereo not drawn) [Example 65, 1-(2-(benzo-furan-5-ylamino)-5-methyl-pyrimidin-4-yl)-N-(2-hydroxy-1-phenylethyl)-1H-pyrrole-3-carboxamide] | 100 to 250 | 100 to 250 | ≤ 100
7 | O=C(NC(CO)c1ccccc1)c1ccn(-c2nc(Nc3ccc4c(c3)OCO4)ncc2F)c1 (stereo not drawn) [Example 66, 1-(2-(benzo[d][1,3]dioxol-5-ylamino)-5-fluoro-pyrimidin-4-yl)-N-(2-hydroxy-1-phenylethyl)-1H-pyrrole-3-carboxamide] | 500 to 2500 | 250 to 500 | 100 to 250
8 | O=C(NC(CO)c1ccccc1)c1ccn(-c2nc(Nc3ccccc3Cl)ncc2F)c1 (stereo not drawn) [Example 67, 1-(2-((2-chloro-phenyl)amino)-5-fluoro-pyrimidin-4-yl)-N-(2-hydroxy-1-phenylethyl)-1H-pyrrole-3-carboxamide] | > 2500 | > 2500 | 500 to 2500
9 | Cc1cnc(Nc2ccc3c(c2)OC(F)(F)O3)nc1-n1ccc(C(=O)N[C@H](CO)c2ccc(F)c(Cl)c2)c1 [Example 69, (S)-N-(1-(3-chloro-4-fluoro-phenyl)-2-hydroxy-ethyl)-1-(2-((2,2-difluoro-benzo[d][1,3]dioxol-5-yl)amino)-5-methyl-pyrimidin-4-yl)-1H-pyrrole-3-carboxamide] | 500 to 2500 | 500 to 2500 | 500 to 2500
10 | Cc1cnc(Nc2ccc3c(c2)OCO3)nc1-n1ccc(C(=O)NC(CO)c2cccc(Cl)c2F)c1 (stereo not drawn) [Example 70, 1-(2-(benzo[d][1,3]dioxol-5-ylamino)-5-methyl-pyrimidin-4-yl)-N-(1-(3-chloro-2-fluorophenyl)-2-hydroxy-ethyl)-1H-pyrrole-3-carboxamide] | 500 to 2500 | > 2500 | 250 to 500
11 | O=C(NC(CO)c1ccccc1)c1ccn(-c2ccnc(Nc3ccccc3)c2)c1 (stereo not drawn) [Example 71, N-(2-hydroxy-1-phenylethyl)-1-(2-(phenylamino)pyridin-4-yl)-1H-pyrrole-3-carboxamide] | > 2500 | 500 to 2500 | 250 to 500
12 | O=C(N[C@H](CO)c1cccc(Cl)c1)c1cn(-c2ccnc(Nc3ccccc3)c2)cn1 [Example 72, (S)-N-(1-(3-chlorophenyl)-2-hydroxy-ethyl)-1-(2-(phenylamino)pyridin-4-yl)-1H-imidazole-4-carboxamide] | > 2500 | 500 to 2500 | ≤ 100
13 | Cc1cnc(Nc2ccc(N3CCNCC3)cc2)nc1-n1ccc(C(=O)NC(CO)c2ccccc2)c1 (stereo not drawn) [Example 73, N-(2-hydroxy-1-phenylethyl)-1-(5-methyl-2-((4-(piperazin-1-yl)-phenyl)amino)pyrimidin-4-yl)-1H-pyrrole-3-carboxamide] | 500 to 2500 | 500 to 2500 | > 2500
14 | CC[C@@H](CO)Nc1ncc(C)c(-n2ccc(C(=O)NC(CO)c3ccccc3)c2)n1 (stereo partly drawn) [Example 75, N-(2-hydroxy-1-phenylethyl)-1-(2-(((S)-1-hydroxy-butan-2-yl)amino)-5-methyl-pyrimidin-4-yl)-1H-pyrrole-3-carboxamide] | > 2500 | 500 to 2500 | 500 to 2500
15 | O=C(NC(CO)c1ccccc1)c1ccn(-c2ccnc(Nc3ccc4c(c3)OCO4)c2)c1 (stereo not drawn) [Example 76, 1-(2-(benzo[d][1,3]dioxol-5-ylamino)pyridin-4-yl)-N-(2-hydroxy-1-phenylethyl)-1H-pyrrole-3-carboxamide] | > 2500 | 500 to 2500 | 250 to 500
16 | Cc1cnc(Nc2ccc3c(c2)OC(F)(F)O3)cc1-n1ccc(C(=O)NC(CO)c2ccccc2)c1 (stereo not drawn) [Example 80, 1-(2-((2,2-difluorobenzo [d][1,3]dioxol-5-yl)-amino)-5-methyl-pyridin-4-yl)-N-(2-hydroxy-1-phenyl-ethyl)-1H-pyrrole-3-carboxamide] | > 2500 | > 2500 | > 2500
17 | Cc1cnc(Nc2ccc3c(c2)OCO3)nc1-n1ccc(C(=O)N[C@H](CO)c2ccc(F)c(Cl)c2)c1 [Example 87, (S)-1-(2-(benzo[d][1,3]dioxol-5-ylamino)-5-methyl-pyrimidin-4-yl)-N-(1-(3-chloro-4-fluorophenyl)-2-hydroxy-ethyl)-1H-pyrrole-3-carboxamide] | 500 to 2500 | 250 to 500 | 100 to 250
18 | Cc1cnc(Nc2ccc(F)cc2Cl)cc1-n1ccc(C(=O)NC(CO)c2cccc(Cl)c2)c1 (stereo not drawn) [Example 91, 1-(2-((2-chloro-4-fluorophenyl)amino)-5-methyl-pyridin-4-yl)-N-(1-(3-chlorophenyl)-2-hydroxy-ethyl)-1H-pyrrole-3-carboxamide] | > 2500 | 500 to 2500 | 500 to 2500
19 | Cc1cnc(Nc2ccc3c(c2)OC(C)(C)O3)nc1-n1ccc(C(=O)NC(CO)c2ccccc2)c1 (stereo not drawn) [Example 95, 1-(2-((2,2-dimethyl-benzo[d][1,3]dioxol-5-yl)-amino)-5-methyl-pyrimidin-4-yl)-N-(2-hydroxy-1-phenylethyl)-1H-pyrrole-3-carboxamide] | 500 to 2500 | 250 to 500 | 250 to 500
20 | Cc1cnc(Nc2ccc3c(c2)OC(C)(C)O3)nc1-n1ccc(C(=O)NC(CO)c2cccc(Cl)c2)c1 (stereo not drawn) [Example 96, N-(1-(3-chloro-phenyl)-2-hydroxy-ethyl)-1-(2-((2,2-dimethyl-benzo[d][1,3]dioxol-5-yl)amino)-5-methyl-pyrimidin-4-yl)-1H-pyrrole-3-carboxamide] | 500 to 2500 | 250 to 500 | 250 to 500
21 | CC[C@@H](CO)Nc1cc(-n2ccc(C(=O)NC(CO)c3ccccc3)c2)c(C)cn1 (stereo partly drawn) [Example 100, N-(2-hydroxy-1-phenyl-ethyl)-1-(2-(((S)-1-hydroxy-butan-2-yl)amino)-5-methyl-pyridin-4-yl)-1H-pyrrole-3-carboxamide] | > 2500 | > 2500 | 250 to 500
22 | Cc1cn(-c2nc(Nc3ccc(F)cc3)ncc2C)cc1C(=O)NC(CO)c1cccc(Cl)c1 (stereo not drawn) [Example 107, N-(1-(3-chlorophenyl)-2-hydroxy-ethyl)-1-(2-((4-fluoro-phenyl)amino)-5-methyl-pyrimidin-4-yl)-4-methyl-1H-pyrrole-3-carboxamide] | 500 to 2500 | 500 to 2500 | 500 to 2500
23 | CC[C@@H](CO)Nc1cc(-n2ccc(C(=O)NC(CO)c3cccc(Cl)c3)c2)ccn1 (stereo partly drawn) [Example 109, N-(1-(3-chloro-phenyl)-2-hydroxy-ethyl)-1-(2-(((S)-1-hydroxy-butan-2-yl)amino)pyridin-4-yl)-1H-pyrrole-3-carboxamide] | > 2500 | > 2500 | 250 to 500
24 | Cc1cn(-c2ccnc(Nc3ccc(F)cc3)n2)cc1C(=O)NC(CO)c1cccc(Cl)c1 (stereo not drawn) [Example 110, N-(1-(3-chloro-phenyl)-2-hydroxy-ethyl)-1-(2-((4-fluoro-phenyl)-amino)pyrimidin-4-yl)-4-methyl-1H-pyrrole-3-carboxamide] | > 2500 | > 2500 | > 2500
25 | Cc1cnc(Nc2ccc(F)cc2)nc1-n1ccc(C(=O)NC(CO)c2cccc(Cl)c2)c1 (stereo not drawn) [Example 113, N-(1-(3-chloro-phenyl)-2-hydroxy-ethyl)-1-(2-((4-fluoro-phenyl)amino)-5-methyl-pyrimidin-4-yl)-1H-pyrrole-3-carboxamide] | 100 to 250 | 100 to 250 | 100 to 250
26 | Cc1cnc(Nc2ccc(F)cc2)nc1-n1ccc(C(=O)NC(CO)c2ccccc2)c1 (stereo not drawn) [Example 114, 1-(2-((4-fluoro-phenyl)amino)-5-methyl-pyrimidin-4-yl)-N-(2-hydroxy-1-phenylethyl)-1H-pyrrole-3-carboxamide] | 250 to 500 | 500 to 2500 | 100 to 250
